# In patent US20230023559A1, “ARYLMETHYLENE HETEROCYCLIC COMPOUNDS AS KV1.3 POTASSIUM SHAKER CHANNEL BLOCKERS” (D. E. Shaw Research, LLC, priority 2019, published 2023):
# Key:
# hERG channel = hERG channel (Homo sapiens, UniProt Q12809); assay: hERG electrophysiology, automated whole-cell patch clamp (Patchliner)
# Kv1.3 potassium channel = molecular target: T1, Kv1.3 potassium channel (Homo sapiens, UniProt P22001); assay: Kv1.3 potassium channel blocker activity, automated whole-cell patch clamp (Patchliner); assay type: cell-based; settings: CHO-K1 cells stably expressing Kv1.3; whole cell current inhibition; read-out: Kv1.3_IC50
# T1 construct: expressed in transfected cells
# Outline: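 Peak-current block was recorded on stable Kv1.3 CHO-K1 cells by automated patch clamp, stepping from a −90 mV holding potential to +40 mV for 100 ms at 0.1 Hz with 10 s breaks between trains. Online P/4 leak subtraction, 10 kHz sampling; compound exposure under 10 s per train.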
# Sequence of hERG channel (Q12809 whole entry): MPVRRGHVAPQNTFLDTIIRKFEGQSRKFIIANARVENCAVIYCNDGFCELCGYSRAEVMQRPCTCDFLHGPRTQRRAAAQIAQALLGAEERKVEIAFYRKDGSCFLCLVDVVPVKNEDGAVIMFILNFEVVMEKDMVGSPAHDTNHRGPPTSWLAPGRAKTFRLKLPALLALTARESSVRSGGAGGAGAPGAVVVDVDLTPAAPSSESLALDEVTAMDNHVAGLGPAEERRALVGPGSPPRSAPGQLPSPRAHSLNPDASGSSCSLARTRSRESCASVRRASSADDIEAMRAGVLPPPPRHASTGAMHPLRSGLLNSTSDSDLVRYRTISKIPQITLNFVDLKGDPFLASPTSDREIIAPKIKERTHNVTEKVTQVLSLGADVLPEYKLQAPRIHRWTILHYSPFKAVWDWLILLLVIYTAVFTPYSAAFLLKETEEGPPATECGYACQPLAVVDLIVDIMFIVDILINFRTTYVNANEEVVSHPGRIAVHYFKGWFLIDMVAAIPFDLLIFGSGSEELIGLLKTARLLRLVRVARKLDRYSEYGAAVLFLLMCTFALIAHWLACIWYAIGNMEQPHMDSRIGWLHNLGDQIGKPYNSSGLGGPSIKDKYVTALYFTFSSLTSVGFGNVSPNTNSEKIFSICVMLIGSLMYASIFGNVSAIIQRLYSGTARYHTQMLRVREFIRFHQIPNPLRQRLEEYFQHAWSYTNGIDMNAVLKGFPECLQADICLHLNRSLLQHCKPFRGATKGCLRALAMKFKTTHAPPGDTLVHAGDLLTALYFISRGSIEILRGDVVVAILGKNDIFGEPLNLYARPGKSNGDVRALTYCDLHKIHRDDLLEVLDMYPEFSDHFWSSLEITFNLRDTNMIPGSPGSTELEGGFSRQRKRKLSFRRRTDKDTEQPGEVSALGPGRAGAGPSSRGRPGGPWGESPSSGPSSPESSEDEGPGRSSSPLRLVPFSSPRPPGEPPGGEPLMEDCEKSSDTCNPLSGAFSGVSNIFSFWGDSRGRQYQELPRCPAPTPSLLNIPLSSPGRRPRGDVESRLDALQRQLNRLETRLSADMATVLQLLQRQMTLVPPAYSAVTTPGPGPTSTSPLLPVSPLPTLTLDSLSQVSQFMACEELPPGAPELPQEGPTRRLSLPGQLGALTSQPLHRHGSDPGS
# T1 sequence (P22001 whole entry): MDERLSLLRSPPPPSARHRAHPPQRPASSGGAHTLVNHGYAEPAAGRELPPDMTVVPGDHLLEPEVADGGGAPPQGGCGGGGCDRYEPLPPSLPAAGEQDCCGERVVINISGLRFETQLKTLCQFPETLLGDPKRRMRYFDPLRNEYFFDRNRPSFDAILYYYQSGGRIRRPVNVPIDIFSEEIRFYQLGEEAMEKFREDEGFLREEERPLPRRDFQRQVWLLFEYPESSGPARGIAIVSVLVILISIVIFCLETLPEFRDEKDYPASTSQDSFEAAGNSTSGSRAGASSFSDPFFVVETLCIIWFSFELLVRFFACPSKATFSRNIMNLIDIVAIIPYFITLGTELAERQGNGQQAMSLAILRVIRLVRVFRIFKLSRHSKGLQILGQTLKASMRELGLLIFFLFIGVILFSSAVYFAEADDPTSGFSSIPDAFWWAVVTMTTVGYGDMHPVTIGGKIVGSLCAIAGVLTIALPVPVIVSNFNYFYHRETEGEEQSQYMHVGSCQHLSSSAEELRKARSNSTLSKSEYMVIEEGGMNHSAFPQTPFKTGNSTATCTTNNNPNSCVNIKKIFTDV
Structure (SMILES),IC50 (Kv1.3 potassium channel) [µM],IC50 (hERG channel) [µM]
"O=S(=O)([C@H]1CCNC1)N1CCC([C@H](O)c2cc(Cl)c(Cl)cc2O)CC1 (single isomer, unassigned; isomer 3) [Compound 121, 4,5-dichloro-2-(hydroxy(1-(pyrrolidin-3-ylsulfonyl)piperidin-4-yl)methyl)phenol Isomer 3]",< 0.5,> 30
"NC(c1cc(Cl)c(Cl)cc1O)C1CCNCC1 (stereo not shown) [Compound 1, 2-(amino(piperidin-4-yl)methyl)-4,5-dichlorophenol Trifluoroacetic Acid]",< 10,> 30
"Oc1cc(Cl)c(Cl)cc1C(O)C1CCNCC1 (stereo not shown) [Compound 2, 4,5-dichloro-2-[hydroxy(piperidin-4-yl)methyl]phenol]",< 10,> 30
"CC(=O)N1CCC(C(O)c2cc(Cl)c(Cl)cc2O)CC1 (stereo not shown) [Compound 4, 1-(4-((4,5-dichloro-2-hydroxyphenyl)(hydroxy)methyl)piperidin-1-yl)ethanone]",< 10,> 30
"CC(=O)NC(c1cc(Cl)c(Cl)cc1O)C1CCNCC1 (stereo not shown) [Compound 11, N-[(4,5-dichloro-2-hydroxyphenyl)(piperidin-4-yl)methyl]acetamide]",< 10,> 30
"CN1CCC(C(N)c2cc(Cl)c(Cl)cc2O)CC1 (stereo not shown) [Compound 21, 2-(amino(1-methylpiperidin-4-yl)methyl)-4,5-dichlorophenol]",< 10,< 30
"Oc1ccc2ccccc2c1C(O)C1CCNCC1 (stereo not shown) [Compound 30, 1-(hydroxy(piperidin-4-yl)methyl)naphthalen-2-ol]",< 10,> 30
"CNC(c1cc(Cl)c(Cl)cc1O)C1CCNCC1 (stereo not shown) [Compound 31, 4,5-dichloro-2-[(methylamino)(piperidin-4-yl)methyl]phenol Trifluoroacetic Acid]",< 10,> 30
"NC(c1c(O)ccc2ccccc12)C1CCNCC1 (stereo not shown) [Compound 34, 1-(amino(piperidin-4-yl)methyl)naphthalen-2-ol Trifluoroacetic Acid]",< 30,> 30
"CC(=O)NC(c1c(O)ccc2ccccc12)C1CCNCC1 (stereo not shown) [Compound 36, N-[(2-hydroxynaphthalen-1-yl)(piperidin-4-yl)methyl]acetamide Trifluoroacetic Acid]",< 10,> 30
"NC(c1c(O)cc(Cl)c(Cl)c1Cl)C1CCNCC1 (stereo not shown) [Compound 37, 2-[amino(piperidin-4-yl)methyl]-3,4,5-trichlorophenol Trifluoroacetic Acid]",< 10,> 30
"NC(c1cc(Cl)c(Cl)cc1O)C1CC2CCC(C1)N2 (stereo not shown) [Compound 42, 2-[amino(8-azabicyclo[3.2.1]octan-3-yl)methyl]-4,5-dichlorophenol Trifluoroacetic Acid]",< 10,> 30
"NC(c1cc(Cl)c(Cl)cc1O)C1CCN(C2CCOCC2)CC1 (stereo not shown) [Compound 44, 2-(amino(1-(tetrahydro-2H-pyran-4-yl)piperidin-4-yl)methyl)-4,5-dichlorophenol]",< 10,< 30
"NC(c1cc(Cl)c(Cl)cc1O)C1CCN(S(=O)(=O)N2CCCC2)CC1 (stereo not shown) [Compound 45, 2-(amino(1-(pyrrolidin-1-ylsulfonyl)piperidin-4-yl)methyl)-4,5-dichlorophenol Trifluoroacetic Acid]",< 10,< 30
"NC(c1cc(Cl)c(Cl)cc1O)C1CNC1 (stereo not shown) [Compound 52, 2-[amino(azetidin-3-yl)methyl]-4,5-dichlorophenol Trifluoroacetic Acid]",< 10,> 30
"CC(C)(O)CN1CCC(C(N)c2cc(Cl)c(Cl)cc2O)CC1 (stereo not shown) [Compound 56, 2-[amino[1-(2-hydroxy-2-methylpropyl)piperidin-4-yl]methyl]-4,5-dichlorophenol Trifluoroacetic Acid]",< 10,< 30
"NC(c1cc(Cl)c(Cl)cc1O)C1(F)CCNCC1 (stereo not shown) [Compound 59, 2-[amino(4-fluoropiperidin-4-yl)methyl]-4,5-dichlorophenol Trifluoroacetic Acid]",< 10,< 30
"NC(c1cc(Cl)c(Cl)cc1O)C1CCN(C(=O)c2ccccc2)CC1 (stereo not shown) [Compound 68, 2-[amino(1-benzoylpiperidin-4-yl)methyl]-4,5-dichlorophenol Trifluoroacetic Acid]",< 10,< 30
"NC(c1cc(Cl)c(Cl)cc1O)C1CCN(c2ccccn2)CC1 (stereo not shown) [Compound 70, 2-[amino[1-(pyridin-2-yl)piperidin-4-yl]methyl]-4,5-dichlorophenol Trifluoroacetic Acid]",< 0.5,< 30
"NC(c1cc(Cl)c(Cl)cc1O)C1CCN(c2ncco2)CC1 (stereo not shown) [Compound 74, 2-[amino[1-(1,3-oxazol-2-yl)piperidin-4-yl]methyl]-4,5-dichlorophenol]",< 10,< 30

# The next lines start with results.
IC50 (Kv1.3 potassium channel) [µM],Structure (SMILES),IC50 (hERG channel) [µM]
< 10,"CC(=O)N1CCC(C(N)c2cc(Cl)c(Cl)cc2O)CC1 (stereo not shown) [Compound 9, 1-(4-(amino(4,5-dichloro-2-hydroxyphenyl)methyl)piperidin-1-yl)ethanone]",> 30
< 10,"CC(C)C(=O)N1CCC(C(N)c2cc(Cl)c(Cl)cc2O)CC1 (stereo not shown) [Compound 43, 1-[4-[amino(4,5-dichloro-2-hydroxyphenyl)methyl]piperidin-1-yl]-2-methylpropan-1-one Trifluoroacetic Acid]",< 30
< 10,"CN(C)C(=O)N1CCC(C(N)c2cc(Cl)c(Cl)cc2O)CC1 (stereo not shown) [Compound 46, 4-(amino(4,5-dichloro-2-hydroxyphenyl)methyl)-N,N-dimethylpiperidine-1-carboxamide]",< 30
< 0.5,"NC(c1cc(Cl)c(Cl)cc1O)C1CCN(C(=O)CO)CC1 (stereo not shown) [Compound 47, 1-[4-[amino(4,5-dichloro-2-hydroxyphenyl)methyl]piperidin-1-yl]-2-hydroxyethan-1-one]",> 30
< 0.5,"N#CC1(C(=O)N2CCC(C(N)c3cc(Cl)c(Cl)cc3O)CC2)CC1 (stereo not shown) [Compound 48, 1-(4-(amino(4,5-dichloro-2-hydroxyphenyl)methyl)piperidine-1-carbonyl)cyclopropanecarbonitrile Trifluoroacetic Acid]",< 30
< 10,"CC(C)(O)CC(=O)N1CCC(C(N)c2cc(Cl)c(Cl)cc2O)CC1 (stereo not shown) [Compound 49, 1-(4-(amino(4,5-dichloro-2-hydroxyphenyl)methyl)piperidin-1-yl)-3-hydroxyl-3-methylbutan-1-one trifluoroacetic acid]",< 30
< 0.5,"C[C@H](N)C(=O)N1CCC(C(N)c2cc(Cl)c(Cl)cc2O)CC1 (stereo partly drawn) [Compound 50, (2S)-2-amino-1-(4-(amino(4,5-dichloro-2-hydroxyphenyl)methyl)piperidin-1-yl)propan-1-one trifluoroacetic acid]",> 30
< 10,"NC(c1cc(Cl)c(Cl)cc1O)C1CCN(CC2CC2)CC1 (stereo not shown) [Compound 51, 2-[amino[1-(cyclopropylmethyl)piperidin-4-yl]methyl]-4,5-dichlorophenol Trifluoroacetic Acid]",> 30
< 0.5,"NC(=O)N1CCC(C(N)c2cc(Cl)c(Cl)cc2O)CC1 (stereo not shown) [Compound 53, 4-[amino(4,5-dichloro-2-hydroxyphenyl)methyl]piperidine-1-carboxamide]",> 30
< 0.5,"C[C@@H](N)C(=O)N1CCC(C(N)c2cc(Cl)c(Cl)cc2O)CC1 (stereo partly drawn) [Compound 54, (2R)-2-amino-1-(4-(amino(4,5-dichloro-2-hydroxyphenyl)methyl)piperidin-1-yl)propan-1-one Trifluoroacetic Acid]",> 30
< 0.5,"NC(c1cc(Cl)c(Cl)cc1O)C1CCN(C(=O)[C@H]2CCNC2)CC1 (stereo partly drawn) [Compound 63, (4-(amino(4,5-dichloro-2-hydroxyphenyl)methyl)piperidin-1-yl)((S)-pyrrolidin-3-yl)methanone Trifluoroacetic Acid]",> 30
< 0.5,"NC(c1cc(Cl)c(Cl)cc1O)C1CCN(C(=O)[C@@H]2CCNC2)CC1 (stereo partly drawn) [Compound 66, (4-(amino(4,5-dichloro-2-hydroxyphenyl)methyl)piperidin-1-yl)((R)-pyrrolidin-3-yl)methanone Trifluoroacetic Acid]",> 30
< 0.5,"NC(c1cc(Cl)c(Cl)cc1O)C1CCN(C(=O)C2COC2)CC1 (stereo not shown) [Compound 67, 2-[amino[1-(oxetane-3-carbonyl)piperidin-4-yl]methyl]-4,5-dichlorophenol]",< 30
< 0.5,"N[C@@H](c1cc(Cl)c(Cl)cc1O)C1CCN(C(=O)C2CNC2)CC1 [Compound 83, 2-[(R)-amino[1-(azetidine-3-carbonyl)piperidin-4-yl]methyl]-4,5-dichlorophenol Trifluoroacetic Acid]",> 30
< 0.5,"CN(C)CC(=O)N1CCC([C@@H](N)c2cc(Cl)c(Cl)cc2O)CC1 [Compound 89, (R)-1-(4-(amino(4,5-dichloro-2-hydroxyphenyl)methyl)piperidin-1-yl)-2-(dimethylamino)ethanone]",> 30
< 0.5,"NCC(=O)N1CCC([C@@H](N)c2cc(Cl)c(Cl)cc2O)CC1 [Compound 92, 2-amino-1-[4-[(R)-amino(4,5-dichloro-2-hydroxyphenyl)methyl]piperidin-1-yl]ethan-1-one Trifluoroacetic Acid]",> 30
< 0.5,"N[C@@H](c1cc(Cl)c(Cl)cc1O)C1CCN(C(=O)[C@H]2CCN2)CC1 [Compound 95, (4-((R)-amino(4,5-dichloro-2-hydroxyphenyl)methyl)piperidin-1-yl)((R)-azetidin-2-yl)methanone]",> 30
< 0.5,C[C@]1(C(=O)N2CCC([C@@H](N)c3cc(Cl)c(Cl)cc3O)CC2)CCCN1 [Compound 96],> 30
